In patent US20050245399A1, “Pyrazole derivatives as herbicidal compositions containing them” (ISHIHARA SANGYO KAISHA, LTD., priority 2004, published 2005):

Assays:
Type in all cases: in vivo
[1] = system: crabgrass (Digitaria sanguinalis L.): DIGSA; assay: Test Example 1 pre-emergence herbicidal activity, DIGSA; settings: visually observed 20th to 23rd day after application
Outline: (§1)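 Read-out: visual growth control (%, 0–100, 100 = complete kill) assessed 20 to 23 days post-treatment. Compound was applied pre-emergence by small sprayer, one day after sowing into upland soil pots, in 500 L/ha water.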

[2] = system: rice (Oryza sativa L.): ORYSA; assay: Test Example 1 pre-emergence herbicidal activity, ORYSA; settings: visually observed 20th to 23rd day after application
Outline: as §1

[3] = system: corn (Zea mays L.), ZEAMX; assay: Test Example 2 post-emergence (foliage treatment) herbicidal activity, ZEAMX; settings: 63 g a.i./ha
Outline: (§2)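 A small sprayer delivered the diluted WP or EC formulation (500 L/ha water, 0.1% v/v spreader) over emerged seedlings in upland soil pots. Damage relative to untreated plants was graded visually from 0 to 100% three weeks or so later (days 20-23).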

[4] = system: soybean (Glycine max Merr.), GLXMA; assay: Test Example 2 post-emergence (foliage treatment) herbicidal activity, GLXMA; settings: 63 g a.i./ha
Outline: as §2

[5] = system: redroot pigweed (Amaranthus retroflexus L.), AMARE; assay: Test Example 2 post-emergence (foliage treatment) herbicidal activity, AMARE; settings: 63 g a.i./ha
Outline: (§3)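 Post-emergence, upland soil pots; leaf stage at spray: ECHCG 1.1-2.1 / DIGSA 1.0-2.0 / AMARE 0.1-1.5 / ORYSA 1.0-2. WP or EC formulation, set active ingredient rate, 500 L/ha water + 0.1% v/v spreader. Visual rating at d20-23, % control 0-100.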

[6] = system: barnyardgrass (Echinochiloa oryzicola: ECHOR); assay: Test Example 3 water application herbicidal activity (paddy), ECHOR; settings: 63 g a.i./ha, water application under submerged condition at 0.5 leaf stage, visually observed 14th day after application; 0 = untreated control, 100 = complete kill
Outline: (§4)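 Submerged application in flooded paddy soil (3–4 cm water); weeds treated at 0.5-leaf stage, transplanted rice 4 d after transplanting. Scored visually as % growth control: weeds at 14 d, rice at 21 d.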

[7] = system: soybean (Glycine max Merr.): GLXMA; assay: Test Example 1 pre-emergence herbicidal activity, GLXMA; settings: visually observed 20th to 23rd day after application
Outline: as §1

[8] = system: japanese ribbon wapato (Sagittaria pygmaea: SA GPY); assay: Test Example 3 water application herbicidal activity (paddy), SAGPY; settings: 63 g a.i./ha, water application under submerged condition, tubers planted, visually observed 14th day after application; 0 = untreated control, 100 = complete kill
Outline: as §4

[9] = system: corn (Zea mays L.): ZEAMX; assay: Test Example 1 pre-emergence herbicidal activity, ZEAMX; settings: visually observed 20th to 23rd day after application
Outline: as §1

[10] = system: crabgrass (Digitaria sanguinalis L.), DIGSA; assay: Test Example 2 post-emergence (foliage treatment) herbicidal activity, DIGSA; settings: 63 g a.i./ha
Outline: as §3

[11] = system: prickly sida (Sida spinosa L.), SIDSP; assay: Test Example 2 post-emergence (foliage treatment) herbicidal activity, SIDSP; settings: 63 g a.i./ha
Outline: as §2

[12] = system: prickly sida (Sida spinosa L.): SEDSP; assay: Test Example 1 pre-emergence herbicidal activity, SIDSP; settings: visually observed 20th to 23rd day after application
Outline: as §1

[13] = system: green foxtail (Setaria viridis L.): SETVI; assay: Test Example 1 pre-emergence herbicidal activity, SETVI; settings: visually observed 20th to 23rd day after application
Outline: as §1

[14] = system: barnyardgrass (Echinochloa crus-galli L.), ECHCG; assay: Test Example 2 post-emergence (foliage treatment) herbicidal activity, ECHCG; settings: 63 g a.i./ha
Outline: as §3

[15] = system: japanese bulrush (Scirpus juncoides: SCPJO); assay: Test Example 3 water application herbicidal activity (paddy), SCPJO; settings: 63 g a.i./ha, water application under submerged condition at 0.5 leaf stage, visually observed 14th day after application; 0 = untreated control, 100 = complete kill
Outline: as §4

[16] = system: green foxtail (Setaria viridis L.), SETVI; assay: Test Example 2 post-emergence (foliage treatment) herbicidal activity, SETVI; settings: 63 g a.i./ha
Outline: as §2

[17] = system: rice (Oryza sativa L.), ORYSA; assay: Test Example 2 post-emergence (foliage treatment) herbicidal activity, ORYSA; settings: 63 g a.i./ha
Outline: as §3

[18] = system: velvetleaf (Abutilon theophrasti): ABUTH; assay: Test Example 1 pre-emergence herbicidal activity, ABUTH; settings: visually observed 20th to 23rd day after application
Outline: as §1

[19] = system: wheat (Triticum aestivum L.), TRZAX; assay: Test Example 2 post-emergence (foliage treatment) herbicidal activity, TRZAX; settings: 63 g a.i./ha
Outline: as §2

[20] = system: barnyardgrass (Echinochloa crus-galli L.): ECHCG; assay: Test Example 1 pre-emergence herbicidal activity, ECHCG; settings: visually observed 20th to 23rd day after application
Outline: as §1

[21] = system: wheat (Triticum aestivum L.): TRZAX; assay: Test Example 1 pre-emergence herbicidal activity, TRZAX; settings: visually observed 20th to 23rd day after application
Outline: as §1

[22] = system: redroot pigweed (Amaranthus retroflexus L.): AMARE; assay: Test Example 1 pre-emergence herbicidal activity, AMARE; settings: visually observed 20th to 23rd day after application
Outline: as §1

[23] = system: velvetleaf (Abutilon theophrasti), ABUTH; assay: Test Example 2 post-emergence (foliage treatment) herbicidal activity, ABUTH; settings: 63 g a.i./ha
Outline: as §2

[24] = system: rice (Oryza sativa L.: ORYSA); assay: Test Example 3 water application herbicidal activity (paddy), transplanted rice ORYSA; settings: 63 g a.i./ha, water application 4th day after transplantation of 2 leaf stage rice, visually observed 21st day after application; 0 = untreated control, 100 = complete kill
Outline: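 Rice at 2-leaf stage is transplanted into flooded puddled soil and treated by water application 4 days later, at a predetermined active-ingredient dose. Crop injury is rated visually as growth control (0–100%) 21 days after treatment.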

| Structure (SMILES) | Pre-emergence Herbicidal Activity DIGSP (growth controlling degree) ([1]; Rate 63 g a.i./ha) | Pre-emergence Herbicidal Activity ORYSA (growth controlling degree) ([2]; Rate 63 g a.i./ha) | growth controlling degree, ZEAMX [3] | growth controlling degree, GLXMA [4] | growth controlling degree, AMARE [5] | growth controlling degrees (%) ECHOR [6] | Pre-emergence Herbicidal Activity GLXMA (growth controlling degree) ([7]; Rate 63 g a.i./ha) | growth controlling degrees (%) SAGPY [8] | Pre-emergence Herbicidal Activity ZEAMX (growth controlling degree) ([9]; Rate 63 g a.i./ha) | growth controlling degree, DIGSP [10] | growth controlling degree, SIDSP [11] | Pre-emergence Herbicidal Activity SIDSP (growth controlling degree) ([12]; Rate 63 g a.i./ha) | Pre-emergence Herbicidal Activity SETVI (growth controlling degree) ([13]; Rate 63 g a.i./ha) | growth controlling degree, ECHCO [14] | growth controlling degrees (%) SCPJO [15] | growth controlling degree, SETVI [16] | growth controlling degree, ORYSA [17] | growth controlling degree, TRZAX [19] | growth controlling degree, ABUTH [23] | growth controlling degrees (%) ORYSA [24] | also measured |
| --- | --- | --- | --- | --- | --- | --- | --- | --- | --- | --- | --- | --- | --- | --- | --- | --- | --- | --- | --- | --- | --- |
| COc1c(Cl)cc(F)c(-c2nn(C)c(OC(F)F)c2Cl)c1NC(=O)CCOc1ccccc1 [Compound 1-34] | 60% | 0% | 50% | 70% | 100% | 100% | 0% | 80% | 0% | 70% | 100% | 70% | 70% | 70% | 50% | 100% | 40% | 30% | 100% | 30% | Pre-emergence Herbicidal Activity ABUTH (growth controlling degree) ([18]; Rate 63 g a.i./ha): 30%; Pre-emergence Herbicidal Activity ECHCG (growth controlling degree) ([20]; Rate 63 g a.i./ha): 0%; Pre-emergence Herbicidal Activity TRZAX (growth controlling degree) ([21]; Rate 63 g a.i./ha): 0%; Pre-emergence Herbicidal Activity AMARE (growth controlling degree) ([22]; Rate 63 g a.i./ha): 100% |
| COc1c(Cl)cc(F)c(-c2nn(C)c(OC(F)F)c2Cl)c1NC(=O)COc1ccc(Cl)cc1 [Compound 1-35] | 50% | 40% | 60% | 80% | 100% | 100% | 0% | 60% | 0% | 70% | 100% | 20% | 80% | 80% | 70% | 95% | 60% | 40% | 100% | 30% | Pre-emergence Herbicidal Activity ABUTH (growth controlling degree) ([18]; Rate 63 g a.i./ha): 20%; Pre-emergence Herbicidal Activity ECHCG (growth controlling degree) ([20]; Rate 63 g a.i./ha): 20%; Pre-emergence Herbicidal Activity TRZAX (growth controlling degree) ([21]; Rate 63 g a.i./ha): 20%; Pre-emergence Herbicidal Activity AMARE (growth controlling degree) ([22]; Rate 63 g a.i./ha): 100% |
| COc1c(Cl)cc(F)c(-c2nn(C)c(OC(F)F)c2Cl)c1NC(=O)COc1ccc(C#N)cc1 [Compound 1-36] | 30% | 10% | 0% | 50% | 100% | 100% | 0% | 70% | 0% | 60% | 100% | 20% | 60% | 50% | 40% | 60% | 20% | 10% | 100% | 35% | Pre-emergence Herbicidal Activity ABUTH (growth controlling degree) ([18]; Rate 63 g a.i./ha): 30%; Pre-emergence Herbicidal Activity ECHCG (growth controlling degree) ([20]; Rate 63 g a.i./ha): 10%; Pre-emergence Herbicidal Activity TRZAX (growth controlling degree) ([21]; Rate 63 g a.i./ha): 0%; Pre-emergence Herbicidal Activity AMARE (growth controlling degree) ([22]; Rate 63 g a.i./ha): 100% |
| C#CCNc1c(OC)c(Cl)cc(F)c1-c1nn(C)c(OC(F)F)c1Cl [Compound 1-53] | 100% | 50% | 100% | 95% | 100% | 100% | 30% | 100% | 20% | 100% | 100% | 100% | 100% | 100% | 100% | 100% | 95% | 40% | 100% | 70% | Pre-emergence Herbicidal Activity ABUTH (growth controlling degree) ([18]; Rate 63 g a.i./ha): 100%; Pre-emergence Herbicidal Activity ECHCG (growth controlling degree) ([20]; Rate 63 g a.i./ha): 100%; Pre-emergence Herbicidal Activity TRZAX (growth controlling degree) ([21]; Rate 63 g a.i./ha): 20%; Pre-emergence Herbicidal Activity AMARE (growth controlling degree) ([22]; Rate 63 g a.i./ha): 100% |
| COCCOC(=O)N(C(=O)OCCOC)c1c(OC)c(Cl)cc(F)c1-c1nn(C)c(OC(F)F)c1Cl [Compound 1-54] |  |  | 50% | 60% | 100% | 98% |  | 30% |  | 70% | 100% |  |  | 90% | 30% | 80% | 98% | 30% | 100% | 40% | Pre-emergence Herbicidal Activity DIGSP (growth controlling degree) ([1]; Rate 125 g a.i./ha): 100%; Pre-emergence Herbicidal Activity ORYSA (growth controlling degree) ([2]; Rate 125 g a.i./ha): 30%; Pre-emergence Herbicidal Activity GLXMA (growth controlling degree) ([7]; Rate 125 g a.i./ha): 10%; Pre-emergence Herbicidal Activity ZEAMX (growth controlling degree) ([9]; Rate 125 g a.i./ha): 0%; Pre-emergence Herbicidal Activity SIDSP (growth controlling degree) ([12]; Rate 125 g a.i./ha): 95%; Pre-emergence Herbicidal Activity SETVI (growth controlling degree) ([13]; Rate 125 g a.i./ha): 100%; Pre-emergence Herbicidal Activity ABUTH (growth controlling degree) ([18]; Rate 125 g a.i./ha): 80%; Pre-emergence Herbicidal Activity ECHCG (growth controlling degree) ([20]; Rate 125 g a.i./ha): 20%; Pre-emergence Herbicidal Activity TRZAX (growth controlling degree) ([21]; Rate 125 g a.i./ha): 20%; Pre-emergence Herbicidal Activity AMARE (growth controlling degree) ([22]; Rate 125 g a.i./ha): 100% |
